Experimental data from patent EP0170926B1, “Eburnanecarboxylic acid derivatives having an amino group in position 9 or 11, the amino group eventually being substituted, process for their preparation, and medicaments containing these compounds” (priority 1984, dated 1986).
In brackets after ≈: the same amount, converted by molar mass. Counter-ions that a name gives are not always drawn. Like-named read-outs stand apart in the source and are kept apart here.

How the values were obtained:
[1] = test system: isolierten Meerschweinchenileum; test: Spasmolytic activity: inhibition of barium chloride-induced contraction of isolated guinea pig ileum; design: species or system Meerschweinchen; conditions: Cavia porcellus
From the text: Die spasmolytische Aktivität der Verbindungen wurde am isolierten Meerschweinchendarm auf klassische Weise bestimmt (Magnus, R., Pflügers Arch., 102; 123/1904/). Als Referenzsubstanz wurden das bekannte Spasmolytikum Papaverin, ferner (+)-Apovincaminsäureäthylester verwendet. Die Ergebnisse sind in der Tabelle II zusammengefaßt.

[2] = test system: Kreislauf narkotisierter Hunde; test: Vasodilating effect: blood flow in anaesthetised dogs (electromagnetic flow meter); format: in vivo; conditions: Canis lupus familiaris, 1 mg/kg intravenous, six dogs
Experimental: Die gefäßerweiternde Wirkung wurde an mit "Chloralose-Pentobarbital"-Gemisch narkotisierten Hunden untersucht. Die Durchblutung der Extremitäten wurde an der Arteria femoralis gemessen, über die Durchblutung des Gehirns ergaben Messungen an der Arteria carotis interna Aufschluß. Zu den Messungen wurden elektromagnetische Strömungsmesser verwendet. Die zu untersuchenden Substanzen wurden in einer Dosis von 1 mg/kg Körpergewicht sechs Hunden appliziert, und die in den gemessenen Parametern eintretenden Veränderungen wurden in Prozent umgerechnet. Als Referenzsubstanz diente der in der Medizin als gefäßerweiternde Substanz allgemein angewendete (+)-Apovincamlnsäureäthylester. Die Ergebnisse sind In der Tabelle I zusammengefaßt.

in vivo [3] = test: in vivo; design: species or system Mäuse; conditions: mouse, po
From the text: Muskelrelaxierende Wirkung (Traction).

Mäusen [4] = test: Anticonvulsive effect: metrazole (pentylenetetrazole) convulsion in mice; format: in vivo; conditions: Mus musculus, po; 125 mg/kg pentylenetetrazole subcutaneous; read-out: ED50 Metrazolkrampf
From the text: Die Tiere erhielten nach der Vorbehandlung subkutan 125 mglkg Pentylentetrazol. Registriert wurde das Ausbleiben des persistierenden clonischen Krampfes und des tonischen Extensorkrampfes.

in vivo [5] = conditions: for TD50: po
Experimental: Messung der Muskelinkoordination (Rotarod) (H. Kwibara et al.: Japan J. Pharmacol. 27, 117 /1977/). Nach vorherigem Training wurden Tiere ausgewählt die im Stande sind, 120 Sekunden lang auf dem horizontalen Stab (Durchmesser 20 mm, Drehzahl 12 min^-1) oben zu bleiben. Als Muskelinkoordination wurde gewertet, wenn die Tiere innerhalb der Limitzeit herabfielen.

Mäusen [6] = test: Anticonvulsive effect: maximal electroshock in mice; format: in vivo; conditions: Mus musculus, po; 20 mA, 0,2 s, corneal electrode; read-out: ED50 max. Elektroschock
From the text: Der Schock wurde an 22 - 24 g schweren Tieren durch eine corneale Elektrode ausgelöst (20 mA, 0,2 s, HSE-Schockgerät Typ 207). Als geschützt wurden diejenigen Tiere betrachtet, bei denen durch die Behandlung die tonische Extension der hinteren Gliedmaßen ausblieb.

[7] = test system: nicht narkotisierter Mäuse; test: Antihypoxic effect: normobaric hypoxia in non-anaesthetised mice; format: in vivo; conditions: for Überlebensdauer (min): 50 mg/kg intraperitoneal 30 min before test, 96 % nitrogen, 4 % oxygen, mean ± spread; for Überlebensdauer (%) Verlängerung: prolongation versus control
From the text: Die antihypoxische Wirkung wurde an nicht narkotisierten Mäusen in normobarer Hypoxie bestimmt. Fünf männliche Mäuse wurden in einen Glaszylinder von 3 Liter Volumen gesetzt, und in den Zylinder wurde ein aus 96 % Stickstoff und 4 % Sauerstoff bestehendes Gasgemisch eingeleitet. Gemessen wurde die Zeit zwischen dem Einbringen der Tiere in den Zylinder und ihrem Verenden. Diejenigen Tiere, die die unbehandelte Kontrolle um mehr als die doppelte Zeitspanne überlebten, können als erfolgreich behandelt gelten. Die zu untersuchenden Substanzen wurden je 10 Tieren in einer Dosis von 50 mg/kg Intraperitoneal 30 Minuten vor Versuchsbeginn verabreicht.

[8] = Vasodilating effect, tests without described method; conditions: in vivo
Tiere [9] = test: Antihypoxic effect: asphyxic anoxia; format: in vivo; conditions: po, 1 h; p.o., one hour before test; protected = survival 30 % longer than control; read-out: ED50 Asphyxische Anoxie
Experimental: Die antihypoxische Wirkung wurde ferner hoch an asphyxischer Anoxie (Caillard C. et al.: Life Sci. 16, 1607 /1975/) und an hypobarer Hypoxie (Baumel J. et al: Proc. Soc. Biol. N.Y. 132, 629 /1969/) gemessen. Dabei wurden die Tiere 16 Stunden lang ausgehungert, dann p.o. behandelt und eine Stunde später in gut schließende Glasgefäße von 100 ml Volumen gesetzt. Als Überiebenszeit wurde die Zeit vom Verschließen des Gefäßes bis zur letzten Atembewegung registriert. Als erfolgreich behandelt können diejenigen Tiere gelten, die eine um 30 % längere Zeit an Leben blieben als der Durchschnitt der Kontrollgruppe.

Tiere [10] = test: Antihypoxic effect: hypobaric hypoxia; format: in vivo; conditions: po, 1 h; p.o., one hour before test; 221 mbar; protected = survival 100 % longer than control; probit analysis; read-out: ED50 Hypobare Hypoxie
From the text: Die Wirkung auf die hypobare Hypoxie wurde an 16 Stunden lang ausgehungerten Tieren untersucht, die eine Stunde vor Versuchsbeginn p.o. mit den Verbindungen behandelt wurden. Die Tiere wurden In einen Vakuumexsikkator gesetzt, und der Druck wurde innerhalb von 20 Sekunden auf 221 mbar [170 Torr] gesenkt. Von diesem Zeitpunkt an wurde als Überlebensdauer die Zeit bis zur letzten Atembewegung gemessen. Als erfolgreich behandelt wurden diejenigen Tiere betrachtet, deren Überlebensdauer um 100 % länger war als die durchschnittliche Übedebensdauer der Kontrolle. Aus dem prozentualen Anteil der geschützten Tiere wurden mittels Probit-Analyse die ED50-Werte berechnet.

[11] = Antihypoxic effect, investigations without described method; conditions: in vivo
[12] = blood flow of Arteria carotis interna (brain), read-out: A. carotis (Veränderungen in Prozent)
[13] = blood flow of Arteria femoralis (extremities), read-out: A. femoralis (Veränderungen in Prozent)
[14] = inhibition of barium chloride-induced contraction, read-out: ED50 (the source's name)

## COc1ccc(Cc2nccc3cc(OC)c(OC)cc23)cc1OC [Papaverin, reference compound]
[1]; read-out: ED50
  IC50: 5.4 µg/mL (≈ 15.9 µM)

## CCOC(=O)C1=C[C@]2(CC)CCCN3CCc4c(n1c1cccc(NC(C)=O)c41)[C@@H]32 [Beispiel 40, 9-(Acetamido)-apovincaminsäureäthylesterhydrochlorid]
[2]; [12]
  change in vivo at 1 mg/kg: 0%

## CC[C@@]12C=C(C(=O)OCC(C)C)n3c4c(c5ccc(NC(C)=O)cc53)CCN(CCC1)[C@H]42 [Beispiel 39, 11-(Acetamido)-apovincaminsäureisobutylesterhydrochlorid]
[2]; [13]
  change in vivo at 1 mg/kg: 0%

## CCOC(=O)C1=C[C@]2(CC)CCCN3CCc4c(n1c1cc(NC(=O)c5ccccc5)ccc41)[C@@H]32 [Beispiel 38, 11-(Benzoylamino)-apovincaminsäureäthylesterhydrochlorid]
In vivo [3]
  TD50: > 180 mg/kg
Mäusen [4]
  ED50: 9.7 mg/kg
In vivo [5]
  TD50: > 180 mg/kg
[2]; [13]
  change in vivo at 1 mg/kg: 0%
Mäusen [6]
  ED50: 16.7 mg/kg

## CCOC(=O)C1=C[C@]2(CC)CCCN3CCc4c(n1c1cccc(N)c41)[C@@H]32 [Beispiel 6, 9-(Amino)-apovincaminsäureäthylesterhydrochlorid]
[7]
  Überlebensdauer (min): 7,3 ± 2,31 min
[7]; 50 mg/kg intraperitoneal, animals surviving more than twice the control time
  Schutz (%): 10%
[7]; 50 mg/kg intraperitoneal
  Überlebensdauer (%) Verlängerung: 22%

## CCOC(=O)C1=C[C@]2(CC)CCCN3CCc4c(n1c1cc(NC(=O)c5cccs5)ccc41)[C@@H]32 [Beispiel 37, 11-(Thien-2'-ylcarbonylamino)-apovincaminsäureäthylesterhydrochlorid]
[2]; [13]
  change in vivo at 1 mg/kg: 0%

## CCC12CCCN3CCc4c(n(c5cccc([N+](=O)[O-])c45)C(O)(C(=O)OC)C1)C32 (centres unmarked) [9-Nitro-vincamin]
[8]
  gefäßerweiternde Wirkung: keine gefäßerweiternde Wirkung

## CC[C@@]12C=C(C(=O)OC)n3c4c(c5ccc(NC(=O)c6ccccc6)cc53)CCN(CCC1)[C@H]42 [Beispiel 28, 11-(Benzoylamino)-apovincamin]
Tiere [9]
  ED50: 25 mg/kg
Mäusen [4]
  ED50: 15.9 mg/kg
Tiere [10]
  ED50: > 50 mg/kg
[1]; [14]
  IC50: 2.5 µg/mL (≈ 5.49 µM)
Mäusen [6]
  ED50: 16 mg/kg

## CC[C@@]12C=C(C(=O)OC)n3c4c(c5ccc(NC(=O)c6ccccc6F)cc53)CCN(CCC1)[C@H]42 [Beispiel 26, 11-[2'-(Fluor)-benzoylamino]-apovincamin]
[1]; [14]
  IC50: 4 µg/mL (≈ 8.45 µM)

## CC[C@@]12C=C(C(=O)OC)n3c4c(c5ccc(NC(C)=O)cc53)CCN(CCC1)[C@H]42 [Beispiel 21, 11-(Acetamido)-apovincamin]
[2]; [13]
  change in vivo at 1 mg/kg: 0%

## CCC1(c2ccccc2)NC(=O)N(C)C1=O (centres unmarked) [Mephenitoin, reference compound]
Tiere [9]
  ED50: > 80 mg/kg
In vivo [3]
  TD50: 154 mg/kg
Mäusen [4]
  ED50: 24.5 mg/kg
Tiere [10]
  ED50: > 80 mg/kg
In vivo [5]; mouse
  selectivity ratio: 3 to 6
In vivo [5]
  TD50: 78.6 mg/kg
Mäusen [6]
  ED50: 26.3 mg/kg

## CCC12C=C(C(=O)OC)n3c4c(c5c([N+](=O)[O-])cccc53)CCN(CCC1)C42 (centres unmarked) [9-Nitro-apovincamin]
[11]
  antihypoxische Wirkung: keine antihypoxische Wirkung

## CCOC(=O)C1=C[C@]2(CC)CCCN3CCc4c(n1c1cccc(NS(C)(=O)=O)c41)[C@@H]32 [Beispiel 7, 9-(Methylsulfonylamino)-apovincaminsäureäthylesterhydrochlorid]
[2]; [12]
  change in vivo at 1 mg/kg: 0%

## CC[C@@]12C=C(C(=O)OC)n3c4c(c5ccc(NC(=O)c6ccc([N+](=O)[O-])cc6)cc53)CCN(CCC1)[C@H]42 [Beispiel 9, 11-[4'-(Nitro)-benzoylamino]-apovincamin]
Tiere [9]
  ED50: 40.9 mg/kg
Tiere [10]
  ED50: 42.1 mg/kg

## CCOC(=O)C1=C[C@]2(CC)CCCN3CCc4c(n1c1ccccc41)[C@@H]32 [Apovincaminsäureäthylester, reference compound]
Tiere [9]
  ED50: > 50 mg/kg
[7]
  Überlebensdauer (min): 6,4 ± 1,58 min
[7]; 50 mg/kg intraperitoneal
  Überlebensdauer (%) Verlängerung: 7%
Tiere [10]
  ED50: > 50 mg/kg
[1]; [14]
  IC50: 2 µg/mL (≈ 5.71 µM)

## CC[C@]12CCCN3CCc4c(n(c5ccccc45)[C@@](O)(C(=O)OC)C1)[C@@H]32 [Vincamin]
[7]
  Überlebensdauer (min): 6,1 ± 1,30 min
[7]; 50 mg/kg intraperitoneal
  Überlebensdauer (%) Verlängerung: 2%
